Earlier results, collected in US8889663B2, “Formulation for oral transmucosal administration of lipid-lowering drugs” (priority 2008, dated 2014).

What was measured:
[1] = in vivo
[2] = oral, 20 mg or 40 mg dose

Row | volume of organ and tissue space in which the active principle is distributed [1] | average known residual bioavailability [2] | Compound
1 | exceeding 600 L |  | CC(C)c1c(C(=O)Nc2ccccc2)c(-c2ccccc2)c(-c2ccc(F)cc2)n1CC[C@@H](O)C[C@@H](O)CC(=O)O [atorvastatin]
2 |  | around 17 % of the administered dose | CC[C@H](C)C(=O)O[C@H]1C[C@H](O)C=C2C=C[C@H](C)[C@H](CC[C@@H](O)C[C@@H](O)CC(=O)O)[C@H]21 [provastatin]
